{"source": "paper PMC11504489", "about": "“Potent Biological Activity of Fluorinated Derivatives of 2-Deoxy-D-Glucose in a Glioblastoma Model” (Biomedicines, 2024)", "molecular_target": "T1, hexokinase II (HKII) (Homo sapiens, UniProt P52789)", "T1 construct": "gene HK2; recombinant HKII expressed in E. coli, first 16 aa from the N-terminal removed", "T1 sequence (P52789 17-917)": "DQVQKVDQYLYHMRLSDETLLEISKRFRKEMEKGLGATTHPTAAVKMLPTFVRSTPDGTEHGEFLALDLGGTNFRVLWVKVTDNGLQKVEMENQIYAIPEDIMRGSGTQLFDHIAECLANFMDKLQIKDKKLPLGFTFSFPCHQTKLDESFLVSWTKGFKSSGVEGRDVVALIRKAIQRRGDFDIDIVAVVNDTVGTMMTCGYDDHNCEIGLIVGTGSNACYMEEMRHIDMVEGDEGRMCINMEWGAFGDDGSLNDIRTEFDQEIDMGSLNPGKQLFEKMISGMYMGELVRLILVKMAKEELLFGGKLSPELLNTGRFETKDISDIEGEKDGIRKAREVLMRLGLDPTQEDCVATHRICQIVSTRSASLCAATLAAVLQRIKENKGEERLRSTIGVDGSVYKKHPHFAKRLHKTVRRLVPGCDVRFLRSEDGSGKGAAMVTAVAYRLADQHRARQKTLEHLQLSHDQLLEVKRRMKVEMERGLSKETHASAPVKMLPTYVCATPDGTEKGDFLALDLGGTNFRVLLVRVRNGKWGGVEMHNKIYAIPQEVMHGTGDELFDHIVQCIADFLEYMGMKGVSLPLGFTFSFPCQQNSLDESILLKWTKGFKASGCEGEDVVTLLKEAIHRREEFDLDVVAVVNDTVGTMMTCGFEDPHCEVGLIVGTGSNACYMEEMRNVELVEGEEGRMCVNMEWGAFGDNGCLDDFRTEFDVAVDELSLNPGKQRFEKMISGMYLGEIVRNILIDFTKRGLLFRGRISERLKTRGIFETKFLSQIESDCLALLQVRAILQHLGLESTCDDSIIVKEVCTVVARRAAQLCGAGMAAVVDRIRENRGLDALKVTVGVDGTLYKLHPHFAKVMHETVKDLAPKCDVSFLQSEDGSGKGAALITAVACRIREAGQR", "assay": "[…] NMR CPMG transverse relaxation titration", "assay_type": "binding", "details": "read-out: Kα [mol m^-3]"}
{"smiles": "OC[C@H]1OC(O)C(F)(F)[C@@H](O)[C@@H]1O", "note": "(mixture of isomers) [2,2-diFG, 2-deoxy-2,2-difluoro-D-glucopyranose]", "values": [{"measurement": "Kd", "value": "960 ± 200", "unit": "µM"}]}
